Reference: patent publication US5935983A, “Use of phenylcyclohexylcarboxamides” (Bayer Aktiengesellschaft, priority 1995, dated 1999)

Tested on: smooth muscle cells obtained from the aortas of pigs
Assay: inhibition of the proliferation of smooth muscle cells (3H-thymidine incorporation)
Type: cell-based, pig
Settings: Sus scrofa; porcine aortic smooth muscle cells; half-maximal inhibition of the thymidine incorporation produced by 10% FCS; 3H-thymidine added after 16-20 h, further 4 h
Description: Investigation of the inhibition of the proliferation of smooth muscle cells by the compounds according to the invention
To determine the antiproliferative action of the compounds, smooth muscle cells are used which are obtained from the aortas of pigs by the media explant technique [R. Ross, J. Cell. Biol. 50, 172, 1971]. The cells are inoculated into suitable culture dishes, as a rule 96-hole plates, and cultured at 37° C. in 5% CO2 for 2-3 days in medium 199 containing 7.5% FCS and 7.5% NCS, 2 mM L-glutamine and 15 mM HEPES, pH 7.4. The cells are then synchronized by serum withdrawal for 2-3 days and then stimulated to growth using serum or other factors. Test compounds are added simultaneously. After 16-20 hours, ^3 H-thymidine is added and after a further 4 hours the incorporation of this substance into the TCA-precipitable DNA of the cells is determined. To determine the IC50 values, the active compound concentration is calculated which, on sequential dilution of the active compound, causes half-maximal inhibition of the thymidine incorporation produced by 10% FCS.

Compound `NC(=O)C(NC(=O)C1CCCCC1c1ccc(Cn2c(C3CC3)nc3ccccc32)cc1)c1ccccc1` (stereo not shown) [Example 16] has an IC50 of 280 pM.
